Source: the NIST ThermoML archive (doi:10.1016/j.jct.2014.05.008)

Conditions: 101.33 kPa, Liquid; for mass density: Vibrating tube method; for thermal conductivity: hot wire

CCCC[N+]1(C)CCCC1.N#CN=C=[N-] [1-butyl-1-methylpyrrolidinium dicyanamide]
Conditions | mass density [kg/m3] | thermal conductivity [W/m/K]
293.2 K | 1018.3 | –
293.5 K | – | 0.155
303.2 K | 1011.8 | 0.155
313.2 K | 1006.1 | –
313.3 K | – | 0.153
323.2 K | 1000.6 | –
323.3 K | – | 0.151
333.2 K | 995.6 | 0.147
343.2 K | 991.3 | –
343.4 K | – | 0.142

CCCCn1cc[n+](C)c1.N#CN=C=[N-] [1-butyl-3-methylimidazolium dicyanamide]
Conditions | mass density [kg/m3] | thermal conductivity [W/m/K]
293.2 K | 1064.5 | –
293.6 K | – | 0.167
303.2 K | 1057.5 | –
303.3 K | – | 0.166
313.2 K | 1051 | –
313.4 K | – | 0.163
323.2 K | 1045.1 | –
323.5 K | – | 0.163
333.2 K | 1040.6 | –
333.7 K | – | 0.153
343.2 K | 1035.7 | –
344.2 K | – | 0.15

CCn1cc[n+](C)c1.N#CN=C=[N-] [1-ethyl-3-methylimidazolium dicyanamide]
Conditions | mass density [kg/m3] | thermal conductivity [W/m/K]
293.2 K | 1107.5 | –
293.4 K | – | 0.183
303.2 K | 1100.4 | –
303.3 K | – | 0.179
313.1 K | – | 0.178
313.2 K | 1093.5 | –
323 K | – | 0.181
323.2 K | 1087 | –
333.2 K | 1081 | 0.17
343.2 K | 1076.1 | –
343.4 K | – | 0.165
